# Assays:
# Details in all cases: human, ipsc-cm
# [1] = (§1) Electrical activity assay on cell lines treated with a given drug. DMSO was used as a vehicle and a control, unblinded dofetilide was used as a control.
# [2] = as §1; remark: listed apart in the source
# [3] = as §1; type: ADME, cell-based
# [4] = as §1; remark: listed apart in the source
# [5] = as §1; remark: listed apart in the source
# [6] = as §1; type: ADME, cell-based; remark: listed apart in the source
# [7] = 0.001 µM, concentration (um) 0.001 uM
# [8] = 0.01 µM, concentration (um) 0.01 uM
# [9] = 0.1 µM, concentration (um) 0.1 uM
# [10] = 0.009507 µM, concentration (um) 0.00950736 uM
# [11] = 0.03004 µM, concentration (um) 0.0300433 uM
# [12] = 0.09494 µM, concentration (um) 0.0949367 uM
# [13] = 0.3 µM, concentration (um) 0.3 uM
# [14] = 0.09507 µM, concentration (um) 0.0950736 uM
# [15] = 0.3004 µM, concentration (um) 0.300433 uM
# [16] = 0.9494 µM, concentration (um) 0.949367 uM
smiles,measurement,setting,value
COC(=O)C1=C(C)NC(C)=C(C(=O)OC)C1c1ccccc1[N+](=O)[O-] [NIFEDIPINE],APDc,[1]; 0.001 µM,59.3
same,FPD measurement,[1]; 0.001 µM,59.3 FPDc
same,APDc,[1]; 0.01 µM,57.63
same,FPD measurement,[1]; 0.01 µM,57.63 FPDc
same,APDc,[1]; 0.1 µM,More Than Half The Wells Had A Quiescence Event Or Apdc Readings Of 0
same,FPD measurement,[1]; 0.1 µM,More Than Half The Wells Had A Quiescence Event Or Apdc Readings Of 0
same,APDc,[1]; 1 µM,More Than Half The Wells Had A Quiescence Event Or Apdc Readings Of 0
same,FPD measurement,[1]; 1 µM,More Than Half The Wells Had A Quiescence Event Or Apdc Readings Of 0
same,FPDc,[2]; 0.001 µM,73.26
same,FPDc,[2]; 0.01 µM,70.54
same,FPDc,[2]; 0.1 µM,51.56
same,FPDc,[2]; 1 µM,21.94
same,FPD measurement,[3]; [7],5 Values Out Of 5 Were Excluded Due To Quiescence Or 0 Apdc
same,FPDc,[3]; [7],21.76
same,FPD measurement,[3]; [8],5 Values Out Of 5 Were Excluded Due To Quiescence Or 0 Apdc
same,FPDc,[3]; [8],17.1
same,FPD measurement,[3]; [9],More Than Half The Wells Had A Quiescence Event Or Apdc Readings Of 0
same,FPDc,[3]; [9],More Than Half The Wells Had A Quiescence Event Or Fpdc Readings Of 0
same,FPD measurement,"[3]; 1 µM, concentration (um) 1 uM",More Than Half The Wells Had A Quiescence Event Or Apdc Readings Of 0
same,FPDc,"[3]; 1 µM, concentration (um) 1 uM",More Than Half The Wells Had A Quiescence Event Or Fpdc Readings Of 0
same,FPD measurement,[4]; 0.001 µM,1 Values Out Of 1 Were Excluded Due To Quiescence Or 0 Fpdc
same,FPDc,[4]; 0.001 µM,1 Values Out Of 1 Were Excluded Due To Quiescence Or 0 Fpdc
same,FPD measurement,[4]; 0.01 µM,1 Values Out Of 1 Were Excluded Due To Quiescence Or 0 Fpdc
same,FPDc,[4]; 0.01 µM,1 Values Out Of 1 Were Excluded Due To Quiescence Or 0 Fpdc
same,FPD measurement,[4]; 0.1 µM,1 Values Out Of 1 Were Excluded Due To Quiescence Or 0 Fpdc
same,FPDc,[4]; 0.1 µM,1 Values Out Of 1 Were Excluded Due To Quiescence Or 0 Fpdc
same,FPD measurement,[4]; 1 µM,1 Values Out Of 1 Were Excluded Due To Quiescence Or 0 Fpdc
same,FPDc,[4]; 1 µM,1 Values Out Of 1 Were Excluded Due To Quiescence Or 0 Fpdc
same,FPD measurement,[5]; 0.001 µM,50.88 FPDc
same,FPDc,[5]; 0.001 µM,50.88
same,FPD measurement,[5]; 0.01 µM,43.95 FPDc
same,FPDc,[5]; 0.01 µM,43.95
same,FPD measurement,[5]; 0.1 µM,24.94 FPDc
same,FPDc,[5]; 0.1 µM,24.94
same,FPD measurement,[5]; 1 µM,16.23 FPDc
same,FPDc,[5]; 1 µM,16.23
CCOC(=O)C1=C(C)NC(C)=C(C(=O)OC)C1c1cccc([N+](=O)[O-])c1 (configuration not stated) [NITRENDIPINE],FPD measurement,[6]; [10],39.69 FPDc
same,FPDc,[6]; [10],6 Values Out Of 6 Were Excluded Due To Quiescence Or 0 Fpdc
same,FPDc,[6]; [11],6 Values Out Of 6 Were Excluded Due To Quiescence Or 0 Fpdc
same,FPDc,[6]; [12],6 Values Out Of 6 Were Excluded Due To Quiescence Or 0 Fpdc
same,FPDc,[6]; [13],6 Values Out Of 6 Were Excluded Due To Quiescence Or 0 Fpdc
same,APDc,[1]; 0.009507 µM,66.7
same,FPD measurement,[1]; 0.009507 µM,66.7 FPDc
same,APDc,[1]; 0.03004 µM,75.75
same,FPD measurement,[1]; 0.03004 µM,75.75 FPDc
same,APDc,[1]; 0.09494 µM,More Than Half The Wells Had A Quiescence Event Or Apdc Readings Of 0
same,FPD measurement,[1]; 0.09494 µM,More Than Half The Wells Had A Quiescence Event Or Apdc Readings Of 0
same,APDc,[1]; 0.3 µM,More Than Half The Wells Had A Quiescence Event Or Apdc Readings Of 0
same,FPD measurement,[1]; 0.3 µM,More Than Half The Wells Had A Quiescence Event Or Apdc Readings Of 0
same,FPD measurement,[2]; 0.009507 µM,5 Values Out Of 5 Were Excluded Due To Quiescence Or 0 Apdc
same,FPDc,[2]; 0.009507 µM,63.48
same,FPD measurement,[2]; 0.03004 µM,5 Values Out Of 5 Were Excluded Due To Quiescence Or 0 Apdc
same,FPDc,[2]; 0.03004 µM,45.72
same,FPDc,[2]; 0.09494 µM,31.81
same,FPD measurement,[2]; 0.3 µM,5 Values Out Of 5 Were Excluded Due To Quiescence Or 0 Apdc
same,FPDc,[2]; 0.3 µM,19.65
same,FPD measurement,[3]; [10],More Than Half The Wells Had A Quiescence Event Or Apdc Readings Of 0
same,FPDc,[3]; [10],More Than Half The Wells Had A Quiescence Event Or Fpdc Readings Of 0
same,FPD measurement,[3]; [11],More Than Half The Wells Had A Quiescence Event Or Apdc Readings Of 0
same,FPDc,[3]; [11],More Than Half The Wells Had A Quiescence Event Or Fpdc Readings Of 0
same,FPD measurement,[3]; [12],More Than Half The Wells Had A Quiescence Event Or Apdc Readings Of 0
same,FPDc,[3]; [12],More Than Half The Wells Had A Quiescence Event Or Fpdc Readings Of 0
same,FPD measurement,[3]; [13],5 Values Out Of 5 Were Excluded Due To Quiescence Or 0 Apdc
same,FPDc,[3]; [13],5 Values Out Of 5 Were Excluded Due To Quiescence Or 0 Fpdc
same,FPD measurement,[4]; 0.009507 µM,1 Values Out Of 1 Were Excluded Due To Quiescence Or 0 Fpdc
same,FPDc,[4]; 0.009507 µM,1 Values Out Of 1 Were Excluded Due To Quiescence Or 0 Fpdc
same,FPD measurement,[4]; 0.03004 µM,1 Values Out Of 1 Were Excluded Due To Quiescence Or 0 Fpdc
same,FPDc,[4]; 0.03004 µM,1 Values Out Of 1 Were Excluded Due To Quiescence Or 0 Fpdc
same,FPD measurement,[4]; 0.09494 µM,1 Values Out Of 1 Were Excluded Due To Quiescence Or 0 Fpdc
same,FPDc,[4]; 0.09494 µM,1 Values Out Of 1 Were Excluded Due To Quiescence Or 0 Fpdc
same,FPD measurement,[4]; 0.3 µM,1 Values Out Of 1 Were Excluded Due To Quiescence Or 0 Fpdc
same,FPDc,[4]; 0.3 µM,1 Values Out Of 1 Were Excluded Due To Quiescence Or 0 Fpdc
CN1CCN(C2=Nc3cc(Cl)ccc3Nc3ccccc32)CC1 [CLOZAPINE],APDc,[1]; 0.09507 µM,47.87
same,FPD measurement,[1]; 0.09507 µM,47.87 FPDc
same,APDc,[1]; 0.3004 µM,55.24
same,FPD measurement,[1]; 0.3004 µM,55.24 FPDc
same,APDc,[1]; 0.9494 µM,62.1
same,FPD measurement,[1]; 0.9494 µM,62.1 FPDc
same,APDc,[1]; 3 µM,73.69
same,FPD measurement,[1]; 3 µM,73.69 FPDc
same,FPDc,[2]; 0.09507 µM,68.88
same,FPD measurement,[2]; 0.3004 µM,5 Values Out Of 5 Were Excluded Due To Quiescence Or 0 Apdc
same,FPDc,[2]; 0.3004 µM,59.23
same,FPD measurement,[2]; 0.9494 µM,5 Values Out Of 5 Were Excluded Due To Quiescence Or 0 Apdc
same,FPDc,[2]; 0.9494 µM,63.68
same,FPDc,[2]; 3 µM,65.29
same,FPD measurement,[3]; [14],5 Values Out Of 5 Were Excluded Due To Quiescence Or 0 Apdc
same,FPDc,[3]; [14],25.04
same,FPD measurement,[3]; [15],5 Values Out Of 5 Were Excluded Due To Quiescence Or 0 Apdc
same,FPDc,[3]; [15],24.94
same,FPD measurement,[3]; [16],5 Values Out Of 5 Were Excluded Due To Quiescence Or 0 Apdc
same,FPDc,[3]; [16],25.07
same,FPD measurement,"[3]; 3 µM, concentration (um) 3 uM",5 Values Out Of 5 Were Excluded Due To Quiescence Or 0 Apdc
same,FPDc,"[3]; 3 µM, concentration (um) 3 uM",22.78
same,FPD measurement,[4]; 0.09507 µM,1 Values Out Of 1 Were Excluded Due To Quiescence Or 0 Fpdc
same,FPDc,[4]; 0.09507 µM,1 Values Out Of 1 Were Excluded Due To Quiescence Or 0 Fpdc
same,FPD measurement,[4]; 0.3004 µM,1 Values Out Of 1 Were Excluded Due To Quiescence Or 0 Fpdc
same,FPDc,[4]; 0.3004 µM,1 Values Out Of 1 Were Excluded Due To Quiescence Or 0 Fpdc
same,FPD measurement,[4]; 0.9494 µM,1 Values Out Of 1 Were Excluded Due To Quiescence Or 0 Fpdc
same,FPDc,[4]; 0.9494 µM,1 Values Out Of 1 Were Excluded Due To Quiescence Or 0 Fpdc
same,FPD measurement,[4]; 3 µM,1 Values Out Of 1 Were Excluded Due To Quiescence Or 0 Fpdc
same,FPDc,[4]; 3 µM,1 Values Out Of 1 Were Excluded Due To Quiescence Or 0 Fpdc

# — ChEMBL document CHEMBL4295262, “Evaluation of the utility of stem-cell derived cardiomyocytes for drug proarrhythmic potential” (2019)
